In PMC7539012, “Hyperphosphorylated tau aggregation and cytotoxicity modulators screen identified prescription drugs linked to Alzheimer's disease and cognitive functions” (Scientific Reports, 2020):
Where a name gives a salt, the structure may show the parent alone. Where a SMILES comes first, the peptide text is derived from it. [ ]: non-standard residue; d: D form. pGlu = O=C1CC[C@@H](C(=O)O)N1; Thz = O=C(O)[C@@H]1CSCN1

The compounds below were run on T1, 1N4R p-tau (assay: p-tau aggregation modulator screen of 1280-compound library (ThS fluorescence net change over 16 h)). Details: not given.
T1 construct: made in house; host or cells: E. coli (PIMAX system)
Assay type: biochemical
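Note: 30 µM compound with 6 µM p-tau over 16 h.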

| Compound | ThS net change |
| --- | --- |
| C[C@]12CC[C@H](O)C[C@@H]1CC[C@@H]1[C@@H]2CC[C@]2(C)C(=O)CC[C@@H]12 [Epiandrosterone] | 440 |
| CN1[C@@H]2C[C@@H](OC(=O)[C@H](CO)c3ccccc3)C[C@H]1[C@@H]1O[C@@H]12.Cl [Scopolamine hydrochloride] | 389 |
| Cc1cccn2c(=O)c(-c3nnn[nH]3)cnc12 [Pemirolast potassium] | 446 |
| CCN(CC)CCOC(=O)C1(c2ccc([N+](=O)[O-])cc2)CCCC1.Cl [Nitrocaramiphen hydrochloride] | 435 |
| CN1CCc2cccc3c2[C@H]1Cc1ccc(O)c(O)c1-3.CN1CCc2cccc3c2[C@H]1Cc1ccc(O)c(O)c1-3.Cl.Cl.O | 233 |
| CC[N+]1(C)CCCC(OC(=O)C(O)(c2ccccc2)c2ccccc2)C1 (centres unmarked) [Pipenzolate bromide] | 395 |
| COc1ccc([C@@H]2Sc3ccccc3N(CCN(C)C)C(=O)[C@@H]2OC(C)=O)cc1 [Diltiazem hydrochloride] | 308 |
| NCC[C@H](O)C(=O)N[C@@H]1C[C@H](N)[C@@H](O[C@H]2O[C@H](CN)[C@@H](O)[C@H](O)[C@H]2O)[C@H](O)[C@H]1O[C@H]1O[C@H](CO)[C@@H](O)[C@H](N)[C@H]1O.O.O [Amikacin hydrate] | 418 |

Same assay, conditions: 1280-compound library screen; ThS fluorescence net change over 16 h

| Compound | ThS net change |
| --- | --- |
| Cn1cnc2c1c(=O)[nH]c(=O)n2C [Theobromine] | 392 |
| N[C@@H]1CON=C1O [D-cycloserine] | 405 |
| NS(=O)(=O)c1cc(C2(O)NC(=O)c3ccccc32)ccc1Cl (centres unmarked) [Chlorthalidone] | 382 |
| CC(C(=O)O)c1ccc(C(=O)c2cccs2)cc1 (centres unmarked) [Suprofen] | 391 |
| CC[C@@H](C(N)=O)N1CCCC1=O [Levetiracetam] | 407 |
| Oc1ncnc2[nH]ncc12 [Allopurinol] | 396 |
| Nc1ncn(C2O[C@H](CO)[C@@H](O)[C@H]2O)c(=O)n1 (some centres unmarked) [Azacytidine-5] | 405 |
| CN1CCC(OC(c2ccccc2)c2ccccc2)CC1 [Diphenylpyraline hydrochloride] | 380 |
| C[N+](C)(C)CCCCCCCCCC[N+](C)(C)C [Decamethonium bromide] | 390 |
| COc1c2occc2c(OC)c2c(=O)cc(C)oc12 [Khellin] | 389 |
| CC(CNC1CCCCC1)OC(=O)c1ccccc1 (centres unmarked) [Hexylcaine hydrochloride] | 393 |
| CCCOc1cc(N)ccc1C(=O)OCCN(CC)CC [Propoxycaine hydrochloride] | 403 |
| CC(=O)Nc1ccc(O)cc1 [Acetaminophen] | 385 |
| C[C@@H]1CN(c2c(F)c(N)c3c(=O)c(C(=O)O)cn(C4CC4)c3c2F)C[C@H](C)N1 [Sparfloxacin] | 403 |
| CCOCCn1c(N2CCCN(C)CC2)nc2ccccc21 [Emedastine] | 387 |

Same assay, conditions: 1280-compound library screen; […]

| Compound | ThS net change |
| --- | --- |
| CCC(COC(=O)c1cc(OC)c(OC)c(OC)c1)(c1ccccc1)N(C)C (centres unmarked) [Trimebutine] | 406 |
| CC(=O)OCC1=C(C(=O)O)N2C(=O)[C@@H](N)[C@H]2SC1 [Cephalosporanic acid, 7-amino] | 378 |
| C[C@H](N)[C@H](O)c1ccc(O)c(O)c1 [Levonordefrin] | 387 |

Same assay, conditions: library screen, ThS fluorescence net change over 16 h with p-tau

| Compound | ThS net change |
| --- | --- |
| OC(c1cc(C(F)(F)F)nc2c(C(F)(F)F)cccc12)C1CCCCN1 (centres unmarked) [Mefloquine hydrochloride] | 304 |
| N[C@@H](Cc1cc(I)c(Oc2cc(I)c(O)c(I)c2)c(I)c1)C(=O)O [Thyroxine (L)] | 301 |
| N[C@@H](Cc1cc(I)c(Oc2ccc(O)c(I)c2)c(I)c1)C(=O)O [Liothyronine] | 298 |
| CC1COc2c(N3CCN(C)CC3)c(F)cc3c(=O)c(C(=O)O)cn1c23 (centres unmarked) [Ofloxacin] | 311 |

Same assay, conditions: p-tau aggregation modulator screen of 1280-compound library; ThS fluorescence net change

| Compound | ThS net change |
| --- | --- |
| CCCCC(CC)CN1CN(CC(CC)CCCC)CC(C)(N)C1 (centres unmarked) [Hexetidine] | 353 |
| CC(N)C12CC3CC(CC(C3)C1)C2 (centres unmarked) [Rimantadine Hydrochloride] | 365 |
| CN(C)CCOC(c1ccccc1)c1ccccc1.Cn1c(=O)c2[nH]c(Cl)nc2n(C)c1=O [Dimenhydrinate] | 345 |
| Nc1nc(=O)n([C@@H]2CS[C@H](CO)O2)cc1F [(-)-Emtricitabine] | 359 |
| CN1CCN(C(c2ccccc2)c2ccc(Cl)cc2)CC1 (centres unmarked) [Chlorcyclizine hydrochloride] | 337 |
| CCC[C@@H]1C[C@@H](C(=O)N[C@@H]([C@H]2O[C@H](SC)[C@H](O)[C@@H](O)[C@H]2O)[C@H](C)Cl)N(C)C1 [Clindamycin hydrochloride] | 344 |
| C=C1C[C@@H]2[C@H](CC[C@]3(C)C(=O)CC[C@@H]23)[C@@]2(C)C=CC(=O)C=C12 [Exemestane] | 373 |
| Nc1ccc(C(=O)NCC(=O)O)cc1 [Aminohippuric acid] | 344 |

Same assay, conditions: p-tau aggregation modulator screen of 1280-compound library; […]

| Compound | ThS net change |
| --- | --- |
| COc1cc2c(cc1OC)C(C)NCC2.Cl (centres unmarked) | 359 |
| Nc1ncnc2c1ncn2[C@@H]1O[C@H](COP(=O)(O)O)[C@@H](O)[C@H]1O.O [Adenosine 5'-monophosphate monohydrate] | 369 |
| CC(C)(C)CC(C)(C)c1ccc(OCCOCC[N+](C)(C)Cc2ccccc2)cc1 [Benzethonium chloride] | 365 |
| CN1CC2c3ccccc3Oc3ccc(Cl)cc3C2C1 (centres unmarked) [Asenapine maleate] | 375 |

Same assay, conditions: p-tau aggregation modulator screen of the compound library, ThS fluorescence net change

| Compound | ThS net change |
| --- | --- |
| O=C(CCCCC(=O)Nc1c(I)cc(I)c(C(=O)O)c1I)Nc1c(I)cc(I)c(C(=O)O)c1I [Iodipamide] | 421 |
| C[C@H](CCC(=O)O)[C@H]1CC[C@H]2[C@@H]3[C@@H](O)C[C@@H]4C[C@H](O)CC[C@]4(C)[C@H]3CC[C@]12C [Urosiol] | 426 |
| COc1ncnc(NS(=O)(=O)c2ccc(N)cc2)c1OC [Sulfadoxine] | 513 |
| CCOC(=O)O[C@]1(C(=O)OCCl)CC[C@H]2[C@@H]3CCC4=CC(=O)C=C[C@]4(C)[C@H]3[C@@H](O)C[C@@]21C [Loteprednol etabonate] | 531 |
| Cn1c(=O)c2c(ncn2CC(=O)O)n(C)c1=O [Acefylline] | 416 |
| O=C1CC[C@@H](C(=O)N2CSC[C@H]2C(=O)O)N1 [Pidotimod] ([pGlu]-[Thz]-OH) | 441 |
| O=C1c2cccc3c2[C@H](CCC3)CN1[C@@H]1CN2CCC1CC2 [Palonosetron hydrochloride] | 458 |
| C[C@]12CC[C@@H]3c4ccc(O)cc4CC[C@H]3[C@@H]1C[C@@H](O)[C@@H]2O [Estriol] | 440 |
| CC(=O)O[C@@]12CO[C@@H]1C[C@H](O)[C@@]1(C)C(=O)[C@H](O)C3=C(C)[C@@H](OC(=O)[C@H](O)[C@@H](NC(=O)OC(C)(C)C)c4ccccc4)C[C@@](O)([C@@H](OC(=O)c4ccccc4)[C@H]21)C3(C)C [Docetaxel] | 542 |
| Josamycin | 446 |
| NS(=O)(=O)c1cc2c(cc1C(F)(F)F)NCNS2(=O)=O [Hydroflumethiazide] | 425 |
| CC(=O)OCC(CCn1cnc2cnc(N)nc21)COC(C)=O [Famciclovir] | 459 |
| CCn1nc(C(=O)O)c(=O)c2cc3c(cc21)OCO3 [Cinoxacin] | 431 |
| COC(c1ccccc1)(c1ccccc1)[C@H](Oc1nc(C)cc(C)n1)C(=O)O [Ambrisentan] | 506 |
